The values that follow come from patent US5420126A, “3,4-dihydro-2H-1,4-benzoxazine derivatives and pharmaceutical compositions containing the same” (Yamanouchi Pharmaceutical Co., Ltd., priority 1989, dated 1995).

In data set [1] the test system is cardiovascular system (mean blood pressure, coronary blood flow). Put plainly: Effects on the cardiovascular system in anesthetized dogs (i.v.). Type of data set: in vivo, Mongrel dogs. The method, then: (§1) The compounds, when given intravenously, reduced the blood pressure and increased the coronary blood flow in the dose range of 1 to 1,000 μg/kg and, when administered into the coronary artery, they dilated the coronary artery in the dose range of 0.3 to 100 μg.
(2) Effects on the cardiovascular system
Mongrel dogs of either sex were anesthetized with pentobarbital, 30 mg/kg i.v. and, after tracheal intubation, the experiment was performed under artificial respiration. After thoracotomy, heart rate, blood pressure, left ventricular pressure, max dLVP/dt, pulmonary arterial pressure, central venous pressure, cardiac output and coronary blood flow were measured. The test compound was administered through a cannula indwelt in the femoral vein and the efficacy was evaluated.
(3) Coronary vasodilating effect

Data set [2] relates to 3,4-diaminopyridine-induced rhythmic contractions of left coronary artery ring segments. The experiment in a line: Inhibition of 3,4-diaminopyridine-induced rhythmic contractions (frequency) in isolated coronary artery rings. Further details: species or system Mongrel dogs. The following applies: Canis lupus familiaris; isolated dog coronary artery rings; 3,4-diaminopyridine 10 mM; 37° C.; read-out: IC50, inhibitory effect on the frequency of 3,4-diaminopyridine-induced rhythmic contractions. The procedure: as §1
(1) Effects on 3,4-diaminopyridine-induced rhythmic contractions
The method of Uchida and Sugimoto (Myakkangaku, 24, 133-143, 1984) was used. Mongrel dogs of either sex were anesthetized with pentobarbital (30 mg/kg i.v.) and bled to death and, then, the heart was excised from each animal. In the Krebs-Henseleit solution, the left coronary circumflex branch or the anterior descending branch was isolated and cut into rings, about 2 mm in width. The ring segment was fixed to a stainless steel hook and suspended in a Krebs-Henseleit bath (37° C.) aerated with 95%O2 -5%CO2 gas mixture under a tension load of 1.0 g, and isometric contractions were recorded.
After the specimen was stabilized for 30 minutes, rhythmic contractions were induced by addition of 3,4-diaminopyridine (10 mM). When the amplitude and frequency of rhythmic contractions became substantially steady, cumulative addition of the test compound to the organ bath was started. The concentration-response curves for the amplitude and frequency of contractions were constructed and the efficacy was evaluated.
The inhibitory effect on the frequency of contractions is shown in Column (1) in Table 1.

The nature of data set [3]: Acute toxic effect (LD50), intravenous. The following applies: mouse, in vivo, i.v. (caudal vein), male mice, up and down method, read-out: LD50, acute toxic dose. The procedure:
(§2) Then, in connection with Examples 1 and 2, the hypotensive effect of the test compound given orally in conscious spontaneously hypertensive rats (SHR) and the intravenous acute toxicity in mice were determined.
The acute toxic dose (LD50) of the test compound administered into the caudal vein was determined by the up and down method in male mice.

In data set [4] the test system is spontaneously hypertensive rats (SHR). Put plainly: Hypotensive effect, oral, in conscious spontaneously hypertensive rats (SHR). Type of data set: in vivo, Spontaneously hypertensive rats (SHR) of Okamoto-Aoki strain. The method, then: as §2
Spontaneously hypertensive rats (SHR) of Okamoto-Aoki strain were anesthetized with pentobarbital, 60 mg/kg i.p. Then, a cannula for blood pressure measurement was indwelt in the left common carotid artery and the other end of the cannula was led out extracorporeally from the posterior neck. After a stabilization period of 4-5 postoperative days, the blood pressure and heart rate were measured without restraint under no anesthesia. The test compound was suspended in 0.5% methylcellulose solution and the suspension was orally administered in a volume of 5 ml/kg and the efficacy was evaluated.

For `CC1(C)CN(N2CCCC2=O)c2cc([N+](=O)[O-])ccc2O1` [41(4), 3,4-dihydro-2,2-dimethyl-4-(2-oxo-1-pyrrolidinyl)-6-nitro-2H-1,4-benzoxazine], the “MBP: mean blood pressure-lowering effect (percent reduction)” value in data set [1] (3 μg/kg i.v.) is recorded as -20 Δ%. Further, in data set [2], the IC50 was found to be 50 nM.
With `CC1(C)Oc2ccc(C#N)cc2C(N2CCCC2=O)C1O` (centres unmarked) [Cromakalim, reference compound], in data set [3], the median lethal dose (LD50) is 49.7 mg/kg. Also, the “MBP: mean blood pressure-lowering effect (percent reduction)” value in data set [1] (10 μg/kg i.v.) is given as -28 Δ%. In addition, in data set [4] (300 μg/kg p.o.), the “MBP: mean blood pressure-lowering effect” value is recorded as -35 Δ%. For the same compound, the IC50 in data set [2] came out at 390 nM.
Consider `CC1(C)CN(c2cccc[n+]2[O-])c2cc([N+](=O)[O-])ccc2O1` [Example 1, 2-(3,4-dihydro-2,2-dimethyl-6-nitro-2H-1,4-benzoxazin-4-yl)pyridine N-oxide], for which the LD50 in data set [3] was found to be 50.4 mg/kg. The “MBP: mean blood pressure-lowering effect (percent reduction)” value in data set [1] (3 μg/kg i.v.) is -16 Δ%. In data set [4] (30 μg/kg p.o.), the “MBP: mean blood pressure-lowering effect” value is -25 Δ%. In data set [2], the concentration for half-maximal inhibition (IC50) worked out at 10 nM.
For the compound `CC1(C)CN(c2cccc[n+]2[O-])c2cc(C#N)ccc2O1` [Example 2, 2-(6-cyano-3,4-dihydro-2,2-dimethyl-2H-1,4-benzoxazin-4-yl)pyridine N-oxide], the 50% lethal dose (LD50) in data set [3] was over 60 mg/kg. Besides, the “MBP: mean blood pressure-lowering effect (percent reduction)” value in data set [1] (10 μg/kg i.v.) was -20 Δ%. Further, the “MBP: mean blood pressure-lowering effect” value in data set [4] (300 μg/kg p.o.) is -40 Δ%. Further, in data set [2], the IC50 came to 240 nM.
On to `CC(=O)CN1CC(C)(C)Oc2ccc([N+](=O)[O-])cc21` [Example 38, 4-Acetonyl-3,4-dihydro-2,2-dimethyl-6-nitro-2H-1,4-benzoxazine], for which the “MBP: mean blood pressure-lowering effect (percent reduction)” value in data set [1] (10 μg/kg i.v.) was -23 Δ%. Further, the IC50 in data set [2] is 70 nM.
On to `CN(C)C(=O)CN1CC(C)(C)Oc2ccc([N+](=O)[O-])cc21` [Example 56, 2-(3,4-dihydro-2,2-dimethyl-6-nitro-2H-1,4-benzoxazin-4-yl)-N,N-dimethylacetamide], for which the “MBP: mean blood pressure-lowering effect (percent reduction)” value in data set [1] (3 μg/kg i.v.) was -11 Δ%. Besides, in data set [2], the IC50 came out at 20 nM.
As to `CC1(C)CN(C2=CCCC2=O)c2cc([N+](=O)[O-])ccc2O1` [Example 70, 3,4-Dihydro-2,21-dimethyl-6-nitro-4-(5-oxo-1-cyclopenten-1-yl) -2H-1,4-benzoxazine], the “MBP: mean blood pressure-lowering effect (percent reduction)” value in data set [1] (10 μg/kg i.v.) is recorded as -9 Δ%. Further, the IC50 in data set [2] came to 10 nM.
